One may read the IC50 as the concentration needed to halve the response being measured. Higher therefore signals weaker potency.

The test deals with T1, AT2R (Homo sapiens, UniProt P50052).
T1 construct: purchased Cisbio #C1TT1AT2
T1 sequence (P50052 1-363): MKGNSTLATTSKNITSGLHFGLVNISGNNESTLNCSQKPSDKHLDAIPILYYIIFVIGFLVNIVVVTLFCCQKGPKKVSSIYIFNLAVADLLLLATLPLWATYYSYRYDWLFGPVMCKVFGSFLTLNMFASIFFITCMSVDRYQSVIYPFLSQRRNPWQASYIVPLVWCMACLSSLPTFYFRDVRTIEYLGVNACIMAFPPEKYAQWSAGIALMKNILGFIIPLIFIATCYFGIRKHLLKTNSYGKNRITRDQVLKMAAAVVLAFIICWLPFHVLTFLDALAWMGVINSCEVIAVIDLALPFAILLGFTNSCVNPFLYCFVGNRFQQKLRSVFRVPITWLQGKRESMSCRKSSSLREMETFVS
In words: Binding assay of compounds to AT2R (Tag-lite HTRF ligand binding kit). The method, then:
The assay was performed in accordance with the manufacturer instructions of Angiotensin AT2 Receptor Ligand Binding Assay Kit (#C1TT1AT2, Cisbio). First, a 10 mM compound stock solution was diluted in a gradient at a 5× dilution ratio (including 10 concentrations, each with two replicates). 160 nL of compounds at different concentrations was added to a 384-well plate. 40 µL of 1× TLB (TLB: Tag-lite buffer) was added to each well, and the mixture was shaken at room temperature for 15 minutes. A 15 mL centrifuge tube added with 5 mL of 1×TLB was prepared in advance. The frozen labeled cells were thawed in a water bath at 37°C (for 1 to 2 minutes), and the thawed cells were quickly transferred to the above 15 mL centrifuge tube. The mixture was mixed well and centrifuged at 1,000 g at room temperature for 5 minutes. The supernatant was removed, and the cells were resuspended by adding 2.7 mL 1× TLB. A new 384-well plate was taken, and 10 µL of mixed cells were added into the corresponding wells according to the assay design. 5 µL of 4× compound solution and 5 µL of 4× Tag-lite red fluorescent labeled ligand were added to each well. After incubation at room temperature for 1 hour, data were read using EnVision with an HTRF mode. The […] at 665nM and 615nM in each well were read respectively, and the ratio was calculated (Ratio=A665nM/B615nM). The IC50 value was calculated by means of GraphPad Prism8 software, where X represents logarithmic value of compound concentration; and Y represents ratio of A665nM/B615nM.
For orientation: In TR-FRET formats the signal depends on donor and acceptor labels being close together.
`Cc1c(CC(C)C)sc(S(=O)(=O)NC(=O)OC[C@H](C)O)c1-c1ccc(Cn2ccnc2Cl)cc1` [Compound I-16, (2S)-2-hydroxypropyl ((3-(4-((2-chloro-1H-imidazol-1-yl)methyl)phenyl)-4-methyl-5-isobutylthiophen-2-yl)sulfonyl)carbamate] came in with an IC50 of 4.49 nM.

In turn, `CCCCOC(=O)NS(=O)(=O)c1sc(CC(C)C)c(F)c1-c1ccc(Cn2ccnc2C(C)(C)O)cc1` [Compound I-3, Butyl ((4-fluoro-3-(4-((2-(2-hydroxypropan-2-yl)-1H-imidazol-1-yl)methyl)phenyl)-5-isobutylthiophen-2-yl)sulfonyl)carbamate] came in with an IC50 of 3.21 nM.

Molecule `CCCCOC(=O)NS(=O)(=O)c1sc(CC(C)C)c(F)c1-c1ccc(Cn2ccnc2C(F)(F)F)cc1` [Compound I-4, Butyl ((4-fluoro-5-isobutyl-3-(4-((2-(trifluoromethyl)-1H-imidazol-1-yl)methyl)phenyl)thiophen-2-yl)sulfonyl)carbamate] had an IC50 of 3.46 nM.

In turn, `Cc1c(CC(C)C)sc(S(=O)(=O)NC(=O)OC[C@H](C)O)c1-c1ccc(Cn2ccnc2C(F)(F)F)cc1` [Compound I-11, (2S)-2-hydroxypropyl ((5-isobutyl-4-methyl-3-(4-((2-(trifluoromethyl)-1H-imidazol-1-yl)methyl)phenyl)thiophen-2-yl)sulfonyl)carbamate] displayed an IC50 of 4.49 nM.

As for `COC(=O)NS(=O)(=O)c1sc(CC(C)C)c(F)c1-c1ccc(Cn2ccnc2C(F)(F)F)cc1` [Compound I-2, Methyl ((4-fluoro-5-isobutyl-3-(4-((2-(trifluoromethyl)-1H-imidazol-1-yl)methyl)phenyl)thiophen-2-yl)sulfonyl) carbamate], the IC50 turned out to be 6.56 nM.

The molecule `Cc1c(CC(C)C)sc(S(=O)(=O)NC(=O)NCc2ccccn2)c1-c1ccc(Cn2ccnc2C(F)(F)F)cc1` [Compound I-24] came in with an IC50 of 4.41 nM.

Molecule `Cc1c(CC(C)C)sc(S(=O)(=O)NC(=O)OCCO)c1-c1ccc(Cn2ccnc2Cl)cc1` [Compound I-18, 2-hydroxyethyl ((3-(4-((2-chloro-1H-imidazol-1-yl)methyl)phenyl)-5-isobutyl-4-methylthiophen-2-yl)sulfonyl)carbamate] returned an IC50 of 3.52 nM.

`COC(=O)NS(=O)(=O)c1sc(CC(C)C)c(F)c1-c1ccc(Cn2ccnc2Cl)cc1` [Compound I-1, Methyl ((3-(4-((2-chloro-1H-imidazol-1-yl)methyl)phenyl)-4-fluoro-5-isobutylthiophen-2-yl)sulfonyl) carbamate] gave a 50% inhibitory concentration (IC50) of 6.67 nM.

`Cc1c(CC(C)C)sc(S(=O)(=O)NC(=O)OC[C@@H](C)O)c1-c1ccc(Cn2ccnc2C(F)(F)F)cc1` [Compound I-12, (2R)-2-hydroxypropyl ((5-isobutyl-4-methyl-3-(4-((2-(trifluoromethyl)-1H-imidazol-1-yl)methyl)phenyl)thiophen-2-yl)sulfonyl)carbamate] yielded an IC50 of 3.88 nM.

The molecule `Cc1c(CC(C)C)sc(S(=O)(=O)NC(=O)OC[C@@H](C)O)c1-c1ccc(Cn2ccnc2Cl)cc1` [Compound I-17, (2R)-2-hydroxypropyl ((3-(4-((2-chloro-1H-imidazol-1-yl)methyl)phenyl)-4-methyl-5-isobutylthiophen-2-yl)sulfonyl)carbamate] displayed an IC50 of 3.88 nM.

These data come from patent publication EP4768479A1 (Hubei Bio-Pharmaceutical Industrial Technological Institute …, priority 2023, dated 2025).
